Here are results for two compounds from US20180338980A1, “AROMATIC SULFONAMIDE DERIVATIVES” (BAYER PHARMA AKTIENGESELLSCHAFT, priority 2015, published 2018).

Entries after “also recorded” stand apart in the source; their conditions may differ.

Test [1] concerns the target T1, P2X4 (Homo sapiens, UniProt Q99571).
T1 sequence (Q99571 1-388): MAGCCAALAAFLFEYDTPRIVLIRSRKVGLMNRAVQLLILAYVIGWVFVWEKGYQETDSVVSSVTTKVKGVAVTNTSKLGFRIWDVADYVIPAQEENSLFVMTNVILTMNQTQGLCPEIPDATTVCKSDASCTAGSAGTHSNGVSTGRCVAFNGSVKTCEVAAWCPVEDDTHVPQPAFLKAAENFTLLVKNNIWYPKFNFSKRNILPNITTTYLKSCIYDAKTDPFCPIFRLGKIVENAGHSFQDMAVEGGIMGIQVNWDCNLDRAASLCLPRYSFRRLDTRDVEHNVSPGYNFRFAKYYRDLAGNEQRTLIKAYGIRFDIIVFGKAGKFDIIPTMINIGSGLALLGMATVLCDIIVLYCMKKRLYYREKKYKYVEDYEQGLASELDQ
Nature of the test: Assay B: human P2X4 receptor cell line, mitochondrial photina luminescence (agonist Bz-ATP at EC50). To be noted: HEK human P2X4 cell line, photina luminescence, agonist Bz-ATP at EC50, average. It is filed as cell-based. Also noted: host or cells: HEK 293 (recombinant, constitutively expressing; with mitochondrial photina in Assay B). The procedure, abridged:
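Bz-ATP at its EC50 activates human P2X4 stably expressed in a cell line that also carries the calcium-sensitive photoprotein mitochondrial photina (coelenterazine cofactor). Light emitted on calcium influx is measured straight away in a luminometer. Reduced luminescence indicates antagonism.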

Test [2] concerns the target T2, mouse P2X4 receptors (Mus musculus, UniProt Q9JJX6).
T2 construct: host or cells: HEK 293 (recombinant, constitutively expressing)
T2 sequence (Q9JJX6 1-388): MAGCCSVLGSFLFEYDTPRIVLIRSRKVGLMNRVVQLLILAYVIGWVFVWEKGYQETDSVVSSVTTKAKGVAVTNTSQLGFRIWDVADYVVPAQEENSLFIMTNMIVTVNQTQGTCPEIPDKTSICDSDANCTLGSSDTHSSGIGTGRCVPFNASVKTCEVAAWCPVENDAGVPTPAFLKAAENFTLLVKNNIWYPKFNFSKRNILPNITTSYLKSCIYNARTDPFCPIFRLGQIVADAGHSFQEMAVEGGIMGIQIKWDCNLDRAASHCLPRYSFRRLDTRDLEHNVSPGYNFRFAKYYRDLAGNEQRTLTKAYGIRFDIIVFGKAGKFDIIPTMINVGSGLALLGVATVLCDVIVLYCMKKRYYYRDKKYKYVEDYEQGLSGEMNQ
In words: Assay B: mouse P2X4 receptor cell line, Fluo8 fluorescence FLIPR (agonist Bz-ATP at EC50). The test is classed as cell-based. To be noted: HEK mouse P2X4 cell line, agonist Bz-ATP at EC50, average. The protocol: The identification of agonists and antagonists of the P2X4 receptor from humans and […] also the quantification of the activity of the compounds of the invention was performed by use of recombinant cell lines. […] The test cell lines constitutively express the mouse or human P2X4 receptors. Stimulation of the receptors with an agonist leads to a conformational change of P2X4 and influx of extracellular calcium ions through the ion channel. The cytoplasmatic calcium transient is detected via the calcium sensitive dye Fluo8 for the mouse P2×4 cell line or in case of the human P2×4 cell line a stably expressed calcium-sensitive photoprotein, mitochondrial photina, which, after reconstitution with the cofactor coelenterazine, emits light in dependence of calcium binding [Bovolenta S, Foti M, Lohmer S, Corazza S., J Biomol Screen. […] The strength of Fluo8 fluorescence signal or photina luminescence signal corresponds to the level of receptor activation. An inhibitor would decrease the signal depending on its potency and concentration.
On the day of the assay medium is exchanged by Fluo8 containing buffer for 30 minutes. In the fluorescence reader (FLIPR) test substances in various concentrations are added for 10 minutes. After baseline measurement the agonist Bz-ATP at EC50 concentration is applied and fluorescence is measured immediately.

Test [3] concerns the target T1, P2X4. In words: Human whole blood assay (human WBA): IL-13 production after LPS priming and ATP stimulation. It is filed as cell-based. More on the design: from tissue; host or cells: human whole blood of healthy female volunteers. The note with it: IL-13 in human whole blood, LPS 100 ng/ml 2 h then ATP 3 mM 1 h; total concentration. The protocol: Human whole blood assay (human WBA) was prepared from the blood of healthy female volunteers. In this assay, the efficacy of P2X4 antagonists on the production of IL-13 in whole blood after ATP stimulation (3 mM for 1 h) following priming of the cells with lipopolysacaride (LPS, 100 ng/ml for 2 h) was evaluated. After incubation, supernatant was taken following centrifugation and the formation of IL-13 was assayed using standard ELISA kits. IC50 values were calculated using GraphPad PRISM program with nonlinear regression curve fit. Data are presented as total concentration.

Test [4] addresses T1, P2X4. Nature of the test: Assay A: human P2X4 receptor cell line, FLIPR calcium assay (Fluo-8, agonist Bz-ATP at EC80). It is filed as cell-based. Also noted: host or cells: HEK 293 (recombinant, constitutively expressing; with mitochondrial photina in Assay B). To be noted: HEK human P2X4 cells, Fluo-8 FLIPR. The procedure, abridged: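 Antagonism read as inhibition of the calcium response to EC80 Bz-ATP, by peak-over-basal Fluo-8 fluorescence over 120 s, normalized to DMSO wells. Human P2X4-HEK cells, dye-loaded 30 min in probenecid-containing HBSS/HEPES pH 7.4, received compound 30 min beforehand at room temperature, 0.5% DMSO final. Triplicates fitted for IC50, maximal inhibition and Hill slope.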

Test [5] deals with c57bl/6 mice. In words: CFA inflammation model with pain read out (dynamic weight bearing). It is filed as in vivo, mouse. The note with it: 50 mg/kg oral on day 1 and day 2 post-CFA, 24-48 h after CFA. The protocol: Wild type female c57bl/6 mice (Taconic) received intraplantar injection of complete Freund's adjuvant (CFA) (30 μl, 1 mg/ml, Sigma) into the left hind paw under isoflurane anesthesia. […] Spontaneous pain-related behavior in freely moving animals was assessed using the automated dynamic weight bearing device (DWB, Bioseb, France) according to published and validated protocols (Robinson et al., 2012; Tetreault et al., 2011; Gruen et al. 2014). For behavioral testing, the animal was placed inside a Plexiglas chamber and allowed to move freely within the apparatus for a 5 min period, subsequently pain behavior is recorded for a test period of another 5 min.
(§1) Statistical analysis is performed with one-way analysis of variance, followed by Bonferroni's multiple comparison test vs. vehicle controls using the GraphPad PRISM software, *p<0.05, **p<0.01.

For test [6], the system named is PGE2 levels. In words: PGE2 levels after CFA-induced inflammation in mice (hind paw tissue, ELISA). It is filed as in vivo, mouse. To be noted: single oral dose 12.5, 25, 50 mg/kg, 48 h after CFA, 1 h after dose. The protocol:
Female c57bl/6 mice (Taconic) received intraplantar injection of complete Freund's adjuvant (CFA) (30 μl, 1 mg/ml, Sigma) into the left hind paw under isoflurane anesthesia. […] At termination of the experiments (48 h after CFA, 1 h after dose), hind paw tissue is collected for analysis of PGE2 levels (ELISA, Cayman Chemical item no. 514531).
as §1
In general terms: An ELISA detects its analyte on a solid surface through an enzyme-linked reagent.

The IC50 is the midpoint of a concentration-inhibition curve. On to `N#Cc1cccc(Oc2ccc(NC(=O)Cc3ccccc3Cl)cc2S(N)(=O)=O)c1` [Example 015, 2-(2-Chlorophenyl)-N-[4-(3-cyanophenoxy)-3-sulfamoylphenyl]acetamide], for which the IC50 in test [1] was 25 nM; in test [2], 149 nM; in test [3], 2540 nM; in test [4] (Bz-ATP at EC80, average values) it was 58 nM. For the same compound, the Emax in test [1] (read-out: human P2X4 Assay B avg Efficacy) was determined as 80%; in test [4] (percentage of maximal inhibition, read-out: human P2X4 Assay A avg Efficacy), 71%. Further, in test [2], the “mouse P2X4 Assay B avg Efficacy” value amounted to 45%.
Take `NS(=O)(=O)c1cc(NC(=O)Cc2ccccc2)ccc1Oc1cccc(Cl)c1` [Example 244, N-[4-(3-Chlorophenoxy)-3-sulfamoylphenyl]-2-phenylacetamide]: the “mouse P2X4 Assay B avg Efficacy” value in test [2] turned out to be 51%. In test [5], the “spontaneous pain behavior assessed by DWB after CFA-induced inflammation” value is listed as “significantly reduced spontaneous pain behavior”. In test [6], the “PGE2 levels in inflamed hind paw after CFA injection” value is “dose-dependently reduced PGE2 levels; also recorded: still in the range of PGE2 levels of PBS treated animals”.
